# Data: patent publication US20240207422A1, “NERVE TARGETING PEPTIDE CONJUGATES AND METHODS OF USE” (Alume Biosciences, Inc., priority 2022, published 2024)
# System: excised human nerve tissue
# Assay: Phage display selection on excised human nerve tissue (Nerve2, Nerve3), NextGen sequence counts
# Assay type: binding
# Conditions: unique sequence count (relative enrichment); peptides overlapping between Nerve2 and Plated Nerve2
# Method: Several m13 phage libraries were constructed expressing randomized variants of a parent peptide (QVPWEEPYYVVKKS-SGGL; SEQ ID NO: 576). In particular, the first 14 amino acids of the parent peptide were randomized using degenerate oligonucleotide synthesis to obtain a diverse set of peptides with a mutation rate of about 50% per residue.
# To accomplish this, synthesis was carried out by the XXK codon design approach, where X is any base and K is G or T. To bias synthesis towards the parent sequence, synthesis was carried out at each X position with a mixture of about 70%-85% of the parent nucleotide and 15-30% of the remaining 3 nucleotides. The resulting molecules were inserted into fADL-1e (Antibody Design Laboratories), which is a type 3 phage display vector having a cloning site on the N-terminal side of the full-length gene III protein. The fusion proteins are directed to the periplasm by the PelB leader peptide, which is inserted in the vector […].
# Collectively, the phage display libraries used in the screens comprised about 600 million peptides, with sequencing analysis confirming a mutation rate of about 50% per residue.
# Phage libraries were independently processed, as follows, with five biological samples: two independent samples of excised human nerve tissue, one sample of a human nerve extract, and two independent samples of human muscle tissue, as follows:
# Excised Human Nerve Tissue: For each of the two independent samples, phage were processed through multiple cycles of selection, with representative phage being isolated and sequenced after each selection cycle. Specifically, for selection using human nerve tissue, a sample of […] tissue (2 mm by 2 mm) was washed prior to mixing and incubation with a phage library. After incubation, the mixture (containing mostly intact nerves with phage particles that had variable affinity for nerves) was centrifuged and the nerve pellet washed multiple times with PBS to remove phage with little or no affinity for nerve tissue. The pellet was homogenized and plated for titering and reamplification. Phage that were bound at each round were sequenced. NextGen sequencing of pools after 2, 3 and 4 rounds of selection were used to isolate candidate sequences that were further analyzed using bioinformatics.
# NextGen sequencing of pools after 2, 3 and 4 rounds of selection were used to isolate candidate sequences from each of the five samples. These five data sets were then analyzed as described in the next section.
# Peptide and vector sequences were translated starting at the first start codon in the nucleotide sequence. […] Trimmed peptides with identical sequences were combined and quantified according to their frequency (count).
# Following processing, an R script was written to merge the unique peptide sequences (with counts 6 or greater) from the 5 different data sets to analyze the overlap between nerve and muscle binding activity.
# For the single Nerve2, Nerve3, and Plated Nerve2 (pn2) subsets, the number of counts for each group was set at a threshold giving rise to at least 100 peptides. […] As highlighted in yellow in FIG. 1B, the representative group also included 6 unique peptides overlapping between nerve2 and nerve3, 200 unique peptides overlapping between nerve2 and plated nerve2 (at least 60 counts), 4 unique peptides overlapping between nerve3 and plated nerve2. Finally, as highlighted in green in FIG. 1B, the representative group also included […] common to the nerve2, nerve3, and plated nerve2 sets.
row,Substance,Count
1,107 (HVGWEQPYYVLRKS) [compound 107],112
2,108 (DFATEERRYAVPKY) [compound 108],111
3,109 (DVPLVKPHYGAVDS) [compound 109],111
4,110 (QFPSEASHYVVRNS) [compound 110],111
5,111 (HSRLHETSYVFNKP) [compound 111],110
6,112 (HVQRQETDYAAKRI) [compound 112],110
7,113 (NVLSEEPSSRDANV) [compound 113],110
8,114 (HLPFEAPYYAVKRS) [compound 114],109
9,115 (QLPGEEPTYVGSNS) [compound 115],109
10,116 (EVPVGDLSYVGKKY) [compound 116],108
11,117 (QFPLVQPNYLVEMP) [compound 117],108
12,118 (HVPGQDSYNVVNKF) [compound 118],107
13,119 (HVTYTEASVYKRTF) [compound 119],107
14,120 (QLEWEEPHYAARKS) [compound 120],107
15,121 (HYQSVKSYSVQKKI) [compound 121],105
16,122 (QLTSAEASYVGKQS) [compound 122],105
17,123 (HRPWEEPYYVAKQS) [compound 123],104
18,124 (LFASENPYNVKSKS) [compound 124],103
19,125 (SVPGEDPSQFGKTP) [compound 125],103
20,126 (HVPSEEPYKLDEQS) [compound 126],102
21,127 (QFRIEDSYDVANQS) [compound 127],102
22,128 (QIYWHESNYLVTKS) [compound 128],102
23,129 (HIPGDETSYVMKKY) [compound 129],100
24,130 (QSLSEEPQYVVTPS) [compound 130],98
25,131 (HILLEEPSNVLNKR) [compound 131],96
26,132 (TLPVYVPYYVVNNT) [compound 132],96

row,Substance,Count
1,133 (HMRSEQPYYGGKVS) [compound 133],95
2,134 (EVPRTERNFVVKNT) [compound 134],94
3,135 (HGAWEETHYVVIQS) [compound 135],94
4,136 (HGRSVESYDLVNKR) [compound 136],94
5,137 (QVTWGEPQYVVYKS) [compound 137],94
6,138 (QLPSGEPYSFVKES) [compound 138],93
7,139 (DVPLEDTYYRVKKY) [compound 139],91
8,140 (HVPFDKSSHLVKKY) [compound 140],90
9,141 (QFAWDSPYSRGKKT) [compound 141],90
10,142 (HVTWQQTKYVTNRS) [compound 142],89
11,143 (RFPLEEPNYFQTKS) [compound 143],89
12,144 (HVTWGKTYHLVTDS) [compound 144],88
13,145 (LVPWEEPGYFQNTS) [compound 145],88
14,146 (QYPREEPRHALKMS) [compound 146],88
15,147 (NVTFEQSSYVVTSP) [compound 147],87
16,148 (YVTSESPYYVHGQP) [compound 148],87
17,149 (HVSGTKPYHLVKKS) [compound 149],86
18,150 (EDVLHNAYHVETQF) [compound 150],85
19,151 (QFAWEHRDYVLQRS) [compound 151],85
20,152 (QVLWEERLYVVKNS) [compound 152],83
21,153 (RSTWEQSYTIVKES) [compound 153],83
22,154 (QMASKEPNYPVKNS) [compound 154],82
23,155 (QNPAEEQYIVWNNS) [compound 155],82
24,156 (SHPWEKQYDVFNNS) [compound 156],81
25,157 (DVPWEEPYHVGNWR) [compound 157],80
26,158 (HVASEQPYYGVNRP) [compound 158],80

row,Substance,Count
1,159 (HVLGEEPYYFVQHV) [compound 159],80
2,160 (QEPWDEFSYNVNAL) [compound 160],80
3,161 (QFRSGEAYVVVQTS) [compound 161],80
4,162 (QNAFSKPYNGVKPS) [compound 162],80
5,163 (QIESGEPYHDQKHP) [compound 163],79
6,164 (QVRWPEQYYVVNMG) [compound 164],79
7,165 (QYAREEPYYFMSYK) [compound 165],79
8,166 (QIPCQSDHNVVTNC) [compound 166],78
9,167 (DRLSDEPFKGMTHS) [compound 167],77
10,168 (DVRWSDPHDRITKS) [compound 168],77
11,169 (HLPWEGPEYLGKKS) [compound 169],77
12,170 (HVPRDEPQSFVHRS) [compound 170],77
13,171 (QFSSAEAYTVVNES) [compound 171],77
14,172 (QIPSHSPYYALNSS) [compound 172],77
15,173 (QQRLSASYQHVIKS) [compound 173],77
16,174 (HFEGEDLYDRVKSR) [compound 174],76
17,175 (HVTLEKPYDVATKS) [compound 175],76
18,176 (QLPGEHPYYPIKKP) [compound 176],76
19,177 (EALWYKHYYGVHKT) [compound 177],75
20,178 (HVVRHYPPHFVHKS) [compound 178],75
21,179 (LIPSEERSYAVINT) [compound 179],75
22,180 (QHTHKQPFNVVKNY) [compound 180],75
23,181 (VVPSQGTYHVGMTS) [compound 181],75
24,182 (AVAWERPYYVVNHS) [compound 182],74
25,183 (DVLLARTYYFGEFP) [compound 183],74
26,184 (HFAGQEHLHFVEIS) [compound 184],74

row,Substance,Count
1,185 (LFAWAEANNVMKNS) [compound 185],74
2,186 (SITNKQSVYVLKKS) [compound 186],73
3,187 (HVQSANPYYDVRNS) [compound 187],72
4,188 (HVSFDEPYYYVKKS) [compound 188],72
5,189 (QDYWAKPSYIVKHS) [compound 189],72
6,190 (QISLTEATLVVRKS) [compound 190],72
7,191 (DVLWEEPRYFVNNS) [compound 191],71
8,192 (HAHGQETYFLVKQS) [compound 192],71
9,193 (HFALQDPYQVFKKT) [compound 193],71
10,194 (QYPAERPTFDVTNA) [compound 194],71
11,195 (SLPMEERYYAVRTA) [compound 195],71
12,196 (DVEWEEPYYFLEKS) [compound 196],70
13,197 (DVTWEEPYYAVKNS) [compound 197],69
14,198 (EHPRVESVYLFPHT) [compound 198],69
15,199 (HDSLDLHYYAMHES) [compound 199],69
16,200 (QCPLEESCFDGQKS) [compound 200],69
17,201 (QLTWPKQNYTMTQS) [compound 201],69
18,202 (QLPWGAPYYVVKNS) [compound 202],68
19,203 (RLPSEEPYTVAKRP) [compound 203],68
20,204 (DFPWEQRSSTVKQY) [compound 204],67
21,205 (DHTRVHPYYDFEIP) [compound 205],67
22,206 (HATLQEPYFVVNHY) [compound 206],67
23,207 (HDTWKGPYYPANKS) [compound 207],67
24,208 (QLPSQEPYNVQRKS) [compound 208],67
25,209 (SVTRYDLSTDVTKS) [compound 209],67
26,210 (ESQWEQPSDVFKVV) [compound 210],66
